The source made the active and inactive calls. The calls are words filed in the database; no cut-off is given here.
Tests used:
Trypanosoma cruzi [1] = assay: Antitrypanosomal activity against Trypanosoma cruzi Dm28c epimastigotes after 24 hrs by MTT assay; assay type: functional
[2] = Antioxidant activity assessed as AAPH-induced peroxyl radical scavenging activity by measuring ORAC-FL index at 0.5 to 2.5 uM preincubated for 15 mins followed by AAPH addition measured every 1 min for 120 mins by fluorescence assay relative to trolox; assay type: functional
[3] = Selectivity index, ratio of IC50 for cytotoxicity against mouse RAW264.7 cells to IC50 for antitrypanosomal activity against epimastigote stage of Trypanosoma cruzi Dm28c; assay type: toxicity, cell-based; conditions: read-out: Ratio IC50
Trypanosoma cruzi [4] = assay: Antitrypanosomal activity against Trypanosoma cruzi Dm28c epimastigotes at 10 to 100 uM measured after 24 hrs by MTT assay; assay type: functional
[5] = Cytotoxicity against mouse RAW264.7 cells measured after 4 hrs by MTT assay; assay type: toxicity
[6] = Oxidation potential of compound against Ag/Agcl reference electrode at 1 mM by cyclic voltametry; assay type: physicochemical; conditions: 1000 µM
[7] = Antioxidant activity assessed as photolysis-induced hydroxyl radical scavenging activity at 1 mM measured after 2 mins using DMPO spin trap by ESR spectroscopic method relative to control; assay type: functional
[8] = Selectivity index, ratio of IC50 for cytotoxicity against mouse RAW264.7 cells to IC50 for antitrypanosomal activity against trypomastigote stage of Trypanosoma cruzi Dm28c; assay type: toxicity, cell-based; conditions: read-out: Ratio IC50
Trypanosoma cruzi [9] = assay: Induction of free radical species generation in microsomes of Trypanosoma cruzi Dm28c epimastigotes spin adduct formation at 5 mM measured after 10 mins using DMPO spin trap by ESR spectroscopic method; assay type: functional
[10] = Induction of free radical species generation assessed as compound-PBN adduct formation at 1 mM by ESR spectroscopic method; assay type: physicochemical; conditions: 1000 µM
Trypanosoma cruzi [11] = assay: Antitrypanosomal activity against trypomastigote stage of Trypanosoma cruzi Dm28c infected in African green monkey Vero cells assessed as growth inhibition incubated for 5 to 7 days post infection measured after 24 hrs by MTT assay; assay type: functional, cell-based
Trypanosoma cruzi [12] = assay: Antitrypanosomal activity against trypomastigote stage of Trypanosoma cruzi Dm28c infected in African green monkey Vero cells assessed as growth inhibition at 20 to 100 uM incubated for 5 to 7 days post infection measured after 24 hrs by MTT assay; assay type: functional, cell-based
Trypanosoma cruzi [13] = assay: Potency index, ratio of nifurtimox IC50 to compound IC50 for Trypanosoma cruzi Dm28c epimastigotes; assay type: functional
Trypanosoma cruzi [14] = assay: Potency index, ratio of nifurtimox IC50 to compound IC50 for Trypanosoma cruzi Dm28c trypamastigotes infected in African green monkey Vero cells; assay type: functional
[15] = Oxidation potential of compound at group 1 hydroxyl against Ag/Agcl reference electrode at 1 mM by cyclic voltametry; assay type: physicochemical; conditions: 1000 µM
[16] = Oxidation potential of compound at group 2 hydroxyl against Ag/Agcl reference electrode at 1 mM by cyclic voltametry

SMILES | IC50 (Trypanosoma cruzi [1]) | Activity [6] | Activity [10] | IC50 (Trypanosoma cruzi [11]) | Activity [15] | Activity [2] | selectivity ratio [3] | Activity (Trypanosoma cruzi [4]) | IC50 at 4 h [5] | Activity [7] | selectivity ratio [8] | Activity (Trypanosoma cruzi [9]) | Activity (Trypanosoma cruzi [12]) | Ratio IC50 (Trypanosoma cruzi [13]) | Ratio IC50 (Trypanosoma cruzi [14]) | Activity [16]
O=c1oc2c(O)cccc2cc1-c1ccc(O)c(O)c1 | 84.3 µM | 0.81 V | – | – | – | 4.59 | 1.37 | Active | 115 µM | – | – | – | – | – | – | –
O=c1oc2c(O)cccc2cc1-c1cccc(O)c1 | > 100 µM | 0.74 V | – | – | – | 3.12 | – | Active | > 100 µM | – | – | – | – | – | – | –
O=c1oc2cc(O)cc(O)c2cc1-c1cccc(O)c1 | > 100 µM | – | Active | – | – | 1.95 | – | Active | > 100 µM | – | – | – | – | – | – | –
O=c1oc2ccc(O)cc2cc1-c1cccc(O)c1 | > 100 µM | – | Active | – | 0.8 V | 5.47 | – | Active | > 100 µM | 100% | – | – | – | – | – | 1.17 V
O=c1oc2ccc(O)cc2cc1-c1ccccc1O | > 100 µM | 0.79 V | Active | – | – | 5.3 | – | Active | > 100 µM | – | – | – | – | – | – | –
O=c1oc2c(O)c(O)ccc2cc1-c1ccc(O)c(O)c1 | 47 µM | – | – | – | 0.64 V | 5.38 | 2.07 | Active | 97.5 µM | 24.3% | – | – | – | – | – | 0.79 V

Now those with a lower IC50 (Trypanosoma cruzi [1]), led by results:

IC50 (Trypanosoma cruzi [1]) | Activity [6] | Activity [10] | IC50 (Trypanosoma cruzi [11]) | Activity [15] | SMILES | Activity [2] | selectivity ratio [3] | Activity (Trypanosoma cruzi [4]) | IC50 at 4 h [5] | Activity [7] | selectivity ratio [8] | Activity (Trypanosoma cruzi [9]) | Activity (Trypanosoma cruzi [12]) | Ratio IC50 (Trypanosoma cruzi [13]) | Ratio IC50 (Trypanosoma cruzi [14]) | Activity [16]
28.6 µM | 0.81 V | – | – | – | O=c1oc2c(O)c(O)ccc2cc1-c1cccc(O)c1 | 2.95 | 13.9 | Active | 398 µM | 26.1% | – | – | – | – | – | –
17.4 µM | – | – | – | – | CC1CS(=O)(=O)CCN1/N=C/c1ccc([N+](=O)[O-])o1 (configuration not stated) [NIFURTIMOX] | – | 15.1 | – | 263 µM | – | 26.3 | – | – | – | – | –
8.9 µM | 0.81 V | – | – | – | O=c1oc2c(O)c(O)ccc2cc1-c1ccccc1 | 1.11 | 2.93 | Active | 26.1 µM | – | – | Active | – | – | – | –
6.15 µM | 1.16 V | Active | – | – | O=c1oc2cc(O)cc(O)c2cc1-c1ccccc1 | 1.81 | > 16.3 | Active | > 100 µM | 100% | – | Active | – | – | – | –
1.31 µM | 0.78 V | – | 39.7 µM | – | O=c1oc2c(O)c(O)ccc2cc1-c1ccccc1O | 2.23 | 52.6 | Active | 68.9 µM | – | 1.73 | Active | Active | 10 - 13 | <=13 | –

From ChEMBL document CHEMBL3872246, “Synthesis, antioxidant and antichagasic properties of a selected series of hydroxy-3-arylcoumarins” (Bioorg Med Chem, 2017)
